In the supplement of paper PMC10307832:

Experiments:
Assay in all cases: relative viability (nuclei count vs DMSO), 5 days (fraction); higher = more cells survive
[1] = tested on: NCI-H1993
Summary of the method: (§1)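 One day after seeding in 1536-well plates, lung cancer cell lines were dosed by pin tool. Dosing was either single-drug or a fixed anchor-drug dose plus five library-drug doses (not always all listed) in √10 steps. After 5 days, nuclei were stained in one fix-and-stain step and counted on 4× images, and relative viability is the nuclei count of treated wells over that of vehicle wells, given as the median of duplicate plates.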

[2] = tested on: NCI-H727
Summary of the method: as §1

[3] = tested on: BEN
Summary of the method: as §1

[4] = tested on: HOP-62
Summary of the method: as §1

[5] = tested on: COR-L 105
Summary of the method: as §1

[6] = tested on: HARA
Summary of the method: as §1

[7] = tested on: HCC-827
Summary of the method: as §1

[8] = tested on: HCC-44
Summary of the method: as §1

[9] = tested on: SK-MES-1
Summary of the method: as §1

[10] = tested on: NCI-H2009
Summary of the method: as §1

[11] = tested on: PC-3 [JPC-3]
Summary of the method: as §1

[12] = tested on: HCC-366
Summary of the method: as §1

[13] = tested on: LCLC-97TM1
Summary of the method: as §1

[14] = tested on: NCI-H2126
Summary of the method: as §1

[15] = tested on: LU99A
Summary of the method: as §1

[16] = tested on: HCC-15
Summary of the method: as §1

[17] = tested on: LC-2-ad
Summary of the method: as §1

[18] = tested on: NCI-H2170
Summary of the method: as §1

[19] = tested on: COR-L23
Summary of the method: as §1

[20] = tested on: NCI-H2087
Summary of the method: as §1

[21] = tested on: LXF-289
Summary of the method: as §1

[22] = tested on: PC-14
Summary of the method: as §1

Cc1cnc(-c2cnc(NCCNc3ccc(C#N)cn3)nc2-c2ccc(Cl)cc2Cl)[nH]1 + Nc1ncn([C@H]2C[C@H](O)[C@@H](CO)O2)c(=O)n1 [Decitabine] (partner 2 µM)
relative viability ([1]; first compound 0.08 µM): 0.744 | relative viability ([1]; first compound 0.253 µM): 0.584 | relative viability ([1]; first compound 0.8 µM): 0.628 | relative viability ([1]; first compound 2.53 µM): 0.591 | relative viability ([2]; first compound 0.08 µM): 0.867 | relative viability ([2]; first compound 0.253 µM): 0.937 | relative viability ([2]; first compound 0.8 µM): 0.838 | relative viability ([2]; first compound 2.53 µM): 0.766 | relative viability ([3]; first compound 0.08 µM): 0.768 | relative viability ([3]; first compound 0.253 µM): 0.716 | relative viability ([3]; first compound 0.8 µM): 0.663 | relative viability ([3]; first compound 2.53 µM): 0.8 | relative viability ([4]; first compound 0.08 µM): 0.204 | relative viability ([4]; first compound 0.253 µM): 0.226 | relative viability ([4]; first compound 0.8 µM): 0.236 | relative viability ([4]; first compound 2.53 µM): 0.174 | relative viability ([5]; first compound 0.08 µM): 0.639 | relative viability ([5]; first compound 0.253 µM): 0.619 | relative viability ([5]; first compound 0.8 µM): 0.707 | relative viability ([5]; first compound 2.53 µM): 0.49 | relative viability ([6]; first compound 0.08 µM): 0.654 | relative viability ([6]; first compound 0.253 µM): 0.471 | relative viability ([6]; first compound 0.8 µM): 0.553 | relative viability ([6]; first compound 2.53 µM): 0.642 | relative viability ([7]; first compound 0.08 µM): 0.328 | relative viability ([7]; first compound 0.253 µM): 0.299 | relative viability ([7]; first compound 0.8 µM): 0.326 | relative viability ([7]; first compound 2.53 µM): 0.287 | relative viability ([8]; first compound 0.08 µM): 0.846 | relative viability ([8]; first compound 0.253 µM): 0.561 | relative viability ([8]; first compound 0.8 µM): 0.925 | relative viability ([8]; first compound 2.53 µM): 1.02 | relative viability ([9]; first compound 0.08 µM): 0.378 | relative viability ([9]; first compound 0.253 µM): 0.35 | relative viability ([9]; first compound 0.8 µM): 0.393 | relative viability ([9]; first compound 2.53 µM): 0.406 | relative viability ([10]; first compound 0.08 µM): 0.426 | relative viability ([10]; first compound 0.253 µM): 0.37 | relative viability ([10]; first compound 0.8 µM): 0.404 | relative viability ([10]; first compound 2.53 µM): 0.395 | relative viability ([11]; first compound 0.08 µM): 0.777 | relative viability ([11]; first compound 0.253 µM): 0.825 | relative viability ([11]; first compound 0.8 µM): 0.785 | relative viability ([11]; first compound 2.53 µM): 0.791 | relative viability ([12]; first compound 0.08 µM): 0.372 | relative viability ([12]; first compound 0.253 µM): 0.318 | relative viability ([12]; first compound 0.8 µM): 0.288 | relative viability ([12]; first compound 2.53 µM): 0.335 | relative viability ([13]; first compound 0.08 µM): 0.213 | relative viability ([13]; first compound 0.253 µM): 0.248 | relative viability ([13]; first compound 0.8 µM): 0.235 | relative viability ([13]; first compound 2.53 µM): 0.227 | relative viability ([14]; first compound 0.08 µM): 0.585 | relative viability ([14]; first compound 0.253 µM): 0.602 | relative viability ([14]; first compound 0.8 µM): 0.539 | relative viability ([14]; first compound 2.53 µM): 0.58 | relative viability ([15]; first compound 0.08 µM): 0.954 | relative viability ([15]; first compound 0.253 µM): 0.873 | relative viability ([15]; first compound 0.8 µM): 0.938 | relative viability ([15]; first compound 2.53 µM): 0.775 | relative viability ([16]; first compound 0.08 µM): 0.701 | relative viability ([16]; first compound 0.253 µM): 0.588 | relative viability ([16]; first compound 0.8 µM): 0.756 | relative viability ([16]; first compound 2.53 µM): 0.704 | relative viability ([17]; first compound 0.08 µM): 0.791 | relative viability ([17]; first compound 0.8 µM): 0.885 | relative viability ([17]; first compound 2.53 µM): 0.776 | relative viability ([18]; first compound 0.08 µM): 0.481 | relative viability ([18]; first compound 0.8 µM): 0.484 | relative viability ([18]; first compound 2.53 µM): 0.406 | relative viability ([19]; first compound 0.08 µM): 0.521 | relative viability ([19]; first compound 0.253 µM): 0.367 | relative viability ([19]; first compound 0.8 µM): 0.521 | relative viability ([19]; first compound 2.53 µM): 0.548 | relative viability ([20]; first compound 0.08 µM): 0.282 | relative viability ([20]; first compound 0.8 µM): 0.286 | relative viability ([20]; first compound 2.53 µM): 0.204 | relative viability ([21]; first compound 0.08 µM): 0.374 | relative viability ([21]; first compound 0.253 µM): 0.364 | relative viability ([21]; first compound 0.8 µM): 0.392 | relative viability ([21]; first compound 2.53 µM): 0.398 | relative viability ([22]; first compound 0.08 µM): 0.232 | relative viability ([22]; first compound 0.253 µM): 0.171 | relative viability ([22]; first compound 0.8 µM): 0.217 | relative viability ([22]; first compound 2.53 µM): 0.234
